Measurements as given in patent US9284323B2, “Naphthalene acetic acid derivatives against HIV infection” (Gilead Sciences, Inc., priority 2012, dated 2016).

System: HIV-IIIb
Assay: Test A: Antiviral Assays in MT4 Cells
Format: cell-based
Conditions: MT-4 cells infected with HIV-IIIb, 5 days incubation, CellTiter-Glo readout
Method: The antiviral properties of a compound disclosed herein may be determined using Test A described below.
Test A: Antiviral Assays in MT4 Cells
For the antiviral assay utilizing MT-4 cells, 0.4 μL of […] test concentration of 3-fold serially diluted compound in DMSO was added to 40 μL of cell growth medium (RPMI 1640, 10% FBS, 1% penicillin/Streptomycin, 1% L-Glutamine, 1% HEPES) in each well of 384-well assay plates (10 concentrations) in quadruplicate.
1 mL aliquots of 2×10e6 MT-4 cells are pre-infected for 1 and 3 hrs respectively, @ 37° C. with 25 μL (MT4) or of either cell growth medium (mock-infected) or a fresh 1:250 dilution of an HIV-IIIb concentrated ABI stock (0.004 m.o.i. for MT4 cells). Infected and uninfected cells are diluted in cell growth medium and 35 μL of 2000 (for MT4) cells is added to each well of the assay plates.
Assay plates were then incubated in a 37° C. incubator. After 5 days of incubation, 25 μl of 2× concentrated CellTiter-Glo™ Reagent (catalog # G7573, Promega Biosciences, Inc., Madison, Wis.) was added to each well of the assay plate. Cell lysis was carried out by incubating at room temperature for 2-3 min and then chemiluminescence was read using the Envision reader (PerkinElmer).

[1] = Human immunodeficiency virus 1, IIIB, MT4, 120 h, Table I
[2] = Human immunodeficiency virus 1, IIIB, MT4, 120 h, Table II

EC50 [2]	SMILES	further results
–	Cc1cc2ccc(C#CC(C)(O)c3ccncc3)cc2c(-c2ccc(Cl)cc2)c1[C@H](OC(C)(C)C)C(=O)O (stereo partly drawn) [Example 12, (2S)-2-tert-Butoxy-2-(1-(4-chlorophenyl)-7-(3-hydroxy-3-(pyridin-4-yl)but-1-ynyl)-3-methylnaphthalen-2-yl)acetic acid]	EC50 [1]: 32 nM
–	Cc1nc(C)c(C(C)(O)C#Cc2ccc3cc(C)c([C@H](OC(C)(C)C)C(=O)O)c(-c4ccc(Cl)cc4)c3c2)s1 (stereo partly drawn) [Example 13, (2S)-2-tert-Butoxy-2-(1-(4-chlorophenyl)-7-(3-(2,4-dimethylthiazol-5-yl)-3-hydroxybut-1-ynyl)-3-methylnaphthalen-2-yl)acetic acid]	EC50 [1]: 65 nM
12.1 nM	Cc1ccc2c(-c3ccc4c5c(ccnc35)CCO4)c(C(OC(C)(C)CF)C(=O)O)c(C)cc2c1 (centres unmarked) [Example 65]	–
–	Cc1cc2c(C)c(-c3cnc(N)nc3)ccc2c(-c2ccc3c4c(ccnc24)CCO3)c1[C@H](OC(C)(C)C)C(=O)O [Example 74]	EC50 (Table II): 37800 nM
3490 nM	Cc1cc2ccc(-c3cccc(-c4ccc5c(cnn5C)c4)c3)cc2c(-c2ccc(Cl)cc2)c1[C@H](OC(C)(C)C)C(=O)O [Example 88]	–
161 nM	Cc1cc2ccccc2c(-c2ccc3c4c(ccnc24)CCO3)c1C(OC(C)(C)CCl)C(=O)O (centres unmarked) [Example 100]	–
30.7 nM	Cc1cc2ccccc2c(-c2ccc3c4c(ccnc24)CCO3)c1C(OC(C)(C)CF)C(=O)O (centres unmarked) [Example 103]	–
40.7 nM	Cc1cc2ccccc2c(-c2ccc3c4c(ccnc24)CCO3)c1C(OC(C)(CF)CF)C(=O)O (centres unmarked) [Example 106]	–
